Patent publication US20250120981A1, “MRTX1133 PHARMACEUTICAL COMPOSITIONS” (MIRATI THERAPEUTICS, INC., priority 2023, published 2025)
Like-named read-outs stand apart in the source and are kept apart here.

Assay: Pharmacokinetics in humans, MRTX1133 formulation, oral, single and multiple doses
Format: in vivo
Details: for increase in the mean exposure: dose increased from 200 mg BID to 400 mg BID; for concentration at 0 h / concentration at 0.5 h / concentration at 1 h / concentration at 1.5 h / concentration at 2 h / concentration at 4 h / concentration at 6 h / concentration at 8 h / concentration at 12 h / concentration at 24 h / AUC(0-t) / Cmax / Tmax / AUC0-inf / concentration at 3 h / concentration at 5 h / concentration at 48 h / concentration at 72 h / concentration at 96 h / half-life: human, plasma, po; for AUC0-inf: read-out: AUC0-inf, Geo Mean
Description: The pharmacokinetics [PK] of the MRTX1133 formulation after oral administration has been evaluated in 25 subjects across 3 escalating dose frequencies under fasting conditions (200 mg twice daily [BID], 400 mg BID, and 800 mg BID), as well as evaluation of 400 mg BID when administered with a low-fat meal (i.e., under fed conditions). The mean (+standard deviation) single-dose and multiple-dose pharmacokinetic profiles of the evaluated doses are presented in FIG. 9 and FIG. 10, respectively. Individual single- and multiple-dose PK profiles can be found in FIG. 11. For all figures, the X-axis represents nominal time of sample collection (hours [h]) and the Y-axis represents plasma concentration (ng/mL). Table 10 lists PK data following the oral administration of a single dose and multiple doses of MRTX1133 formulation by dose level and subject.

[1] = 200 mg, multiple oral doses of 200 mg BID, fasted, mean of subjects, read-out: Plasma concentration, Mean
[2] = 200 mg, single oral dose of 200 mg, fasted, mean of subjects, read-out: Plasma concentration, Mean
[3] = 400 mg, multiple oral doses of 400 mg BID with a low-fat meal, mean of subjects, read-out: Plasma concentration, Mean
[4] = 400 mg, multiple oral doses of 400 mg BID with a low-fat meal, mean of subjects
[5] = 400 mg, multiple oral doses of 400 mg BID, fasted, mean of subjects, read-out: Plasma concentration, Mean
[6] = 400 mg, single oral dose of 400 mg with a low-fat meal, mean of subjects, read-out: Plasma concentration, Mean
[7] = 400 mg, single oral dose of 400 mg with a low-fat meal, mean of subjects
[8] = 400 mg, single oral dose of 400 mg with a low-fat meal, individual subjects, read-out: Plasma concentration
[9] = 400 mg, single oral dose of 400 mg, fasted, mean of subjects, read-out: Plasma concentration, Mean
[10] = 400 mg, single oral dose of 400 mg, fasted, individual subjects, read-out: Plasma concentration
[11] = 800 mg, multiple oral doses of 800 mg BID, fasted, Mean of subjects, read-out: Plasma concentration

For `C#Cc1c(F)ccc2cc(O)cc(-c3ncc4c(N5C[C@H]6CC[C@@H](C5)N6)nc(OC[C@@]56CCCN5C[C@H](F)C6)nc4c3F)c12` [MRTX1133, 4-(4-((1R,5S)-3,8-diazabicyclo[3.2.1]octan-3-yl)-8-fluoro-2-(((2R,7aS)-2-fluorohexahydro-1Hpyrrolizin-7a-yl)methoxy)pyrido[4,3-d]pyrimidin-7-yl)-5-ethynyl-6-fluoronaphthalen-2-ol], the “increase in the mean exposure” value (fasted, multiple doses) was about 4.4 fold, the “increase in the mean exposure” value (fasted, single dose) was “approximately 1.8 fold” and the “change of mean single- and multiple-dose exposure” value (dose increased from 400 mg BID to 800 mg BID, fasted) was “did not change in a clinically meaningful manner”. For the same compound, the concentration at 0 h [1] was 5.33 ng/mL, the concentration at 0.5 h [1] was 28.1 ng/mL and the concentration at 1 h [1] was 31.1 ng/mL. It also gave a concentration at 1.5 h [1] of 33.1 ng/mL, a concentration at 2 h [1] of 20.1 ng/mL and a concentration at 4 h [1] of 6.62 ng/mL. For the same compound, the concentration at 6 h [1] was 3.85 ng/mL, the concentration at 8 h [1] was 2.79 ng/mL and the concentration at 12 h [1] was 2.46 ng/mL. It also gave a concentration at 24 h (200 mg, multiple oral doses of 200 mg BID, fasted, individual subjects, sample taken after PM dose, read-out: Plasma concentration) of 0.73 ng/mL, an AUC(0-t) (200 mg, multiple oral doses of 200 mg BID, fasted, geometric mean of subjects, read-out: AUC0-12, Geo Mean) of 93.1 ng·h/mL and an AUC(0-t) (200 mg, multiple oral doses of 200 mg BID, fasted, geometric mean of subjects, read-out: AUC0-last, Geo Mean) of 75.2 ng·h/mL. The Cmax (200 mg, multiple oral doses of 200 mg BID, fasted, geometric mean of subjects, read-out: Cmax, Geo Mean) was 36 ng/mL, the Tmax (200 mg, multiple oral doses of 200 mg BID, fasted, median of subjects (footnote b), read-out: Tmax, Median) was 1.5 h and the concentration at 0.5 h [2] was 11.1 ng/mL. The concentration at 1 h [2] was 44.3 ng/mL, the concentration at 1.5 h [2] was 39 ng/mL and the concentration at 2 h [2] was 39.3 ng/mL. The concentration at 4 h [2] was 30.4 ng/mL, the concentration at 6 h [2] was 11.9 ng/mL and the concentration at 8 h [2] was 6.58 ng/mL. It also gave a concentration at 12 h [2] of 4.44 ng/mL, a concentration at 24 h [2] of 0.521 ng/mL and an AUC(0-t) (200 mg, single oral dose of 200 mg, fasted, geometric mean of subjects, read-out: AUC0-12, Geo Mean) of 148 ng·h/mL. The AUC0-inf (200 mg, single oral dose of 200 mg, fasted, geometric mean of subjects) was 165 ng·h/mL, the AUC(0-t) (200 mg, single oral dose of 200 mg, fasted, geometric mean of subjects, read-out: AUC0-last, Geo Mean) was 151 ng·h/mL and the Cmax (200 mg, single oral dose of 200 mg, fasted, geometric mean of subjects, read-out: Cmax, Geo Mean) was 59.8 ng/mL. The Tmax (200 mg, single oral dose of 200 mg, fasted, median of subjects (footnote b), read-out: Tmax, Median) was 1.5 h, the concentration at 0 h [3] was 16.7 ng/mL and the concentration at 1 h [3] was 138 ng/mL. For the same compound, the concentration at 2 h [3] was 66.7 ng/mL, the concentration at 3 h [4] was 55.1 ng/mL and the concentration at 4 h [3] was 100 ng/mL. It also gave a concentration at 5 h [4] of 39.8 ng/mL, a concentration at 6 h [3] of 30 ng/mL and a concentration at 8 h [3] of 23 ng/mL. It also gave a concentration at 12 h [3] of 17.3 ng/mL, an AUC(0-t) (400 mg, multiple oral doses of 400 mg BID with a low-fat meal, geometric mean of subjects, read-out: AUC0-12, Geo Mean) of 310 ng·h/mL and an AUC(0-t) (400 mg, multiple oral doses of 400 mg BID with a low-fat meal, geometric mean of subjects, read-out: AUC0-last, Geo Mean) of 310 ng·h/mL. For the same compound, the Cmax (400 mg, multiple oral doses of 400 mg BID with a low-fat meal, geometric mean of subjects, read-out: Cmax, Geo Mean) was 102 ng/mL, the Tmax (400 mg, multiple oral doses of 400 mg BID with a low-fat meal, median of subjects (footnote b), read-out: Tmax, Median) was 1 h and the concentration at 0 h [5] was 19.4 ng/mL. For the same compound, the concentration at 0.5 h [5] was 72.7 ng/mL, the concentration at 1 h [5] was 85.9 ng/mL and the concentration at 1.5 h [5] was 64.6 ng/mL. The concentration at 2 h [5] was 48.5 ng/mL, the concentration at 4 h [5] was 77.3 ng/mL and the concentration at 6 h [5] was 63.4 ng/mL. For the same compound, the concentration at 8 h [5] was 40.3 ng/mL, the concentration at 12 h [5] was 27.8 ng/mL and the AUC(0-t) (400 mg, multiple oral doses of 400 mg BID, fasted, geometric mean of subjects, read-out: AUC0-12, Geo Mean) was 410 ng·h/mL. The AUC(0-t) (400 mg, multiple oral doses of 400 mg BID, fasted, geometric mean of subjects, read-out: AUC0-last, Geo Mean) was 410 ng·h/mL, the Cmax (400 mg, multiple oral doses of 400 mg BID, fasted, geometric mean of subjects, read-out: Cmax, Geo Mean) was 111 ng/mL and the Tmax (400 mg, multiple oral doses of 400 mg BID, fasted, median of subjects (footnote b), read-out: Tmax, Median) was 1 h. It also gave a concentration at 1 h [6] of 46.7 ng/mL, a concentration at 2 h [6] of 43.6 ng/mL and a concentration at 3 h [7] of 43.7 ng/mL. It also gave a concentration at 4 h [6] of 59.7 ng/mL, a concentration at 5 h [7] of 53.9 ng/mL and a concentration at 6 h [6] of 43.6 ng/mL. For the same compound, the concentration at 8 h [6] was 20.4 ng/mL, the concentration at 12 h [6] was 11.3 ng/mL and the concentration at 24 h [8] was 7.59 ng/mL. It also gave a concentration at 24 h [6] of 7.59 ng/mL, a concentration at 48 h [8] of 3.13 ng/mL and a concentration at 48 h [6] of 3.13 ng/mL. It also gave a concentration at 72 h [8] of 2.13 ng/mL, a concentration at 72 h [6] of 2.13 ng/mL and a concentration at 96 h [8] of 1.12 ng/mL. It also gave a concentration at 96 h [6] of 1.12 ng/mL, an AUC(0-t) (400 mg, single oral dose of 400 mg with a low-fat meal, geometric mean of subjects, read-out: AUC0-12, Geo Mean) of 256 ng·h/mL and an AUC0-inf (400 mg, single oral dose of 400 mg with a low-fat meal, geometric mean of subjects) of 300 ng·h/mL. The AUC(0-t) (400 mg, single oral dose of 400 mg with a low-fat meal, geometric mean of subjects, read-out: AUC0-last, Geo Mean) was 277 ng·h/mL, the Cmax (400 mg, single oral dose of 400 mg with a low-fat meal, geometric mean of subjects, read-out: Cmax, Geo Mean) was 66.6 ng/mL and the half-life (400 mg, single oral dose of 400 mg with a low-fat meal, geometric mean of subjects, read-out: T1/2, Geo Mean (converted)) was 27.2 h. For the same compound, the half-life (400 mg, single oral dose of 400 mg with a low-fat meal, individual subjects, read-out: T1/2 (converted)) was 27.2 h, the Tmax (400 mg, single oral dose of 400 mg with a low-fat meal, median of subjects (footnote b), read-out: Tmax, Median) was 4 h and the concentration at 0.5 h [9] was 42.7 ng/mL. It also gave a concentration at 1 h [9] of 52.2 ng/mL, a concentration at 1.5 h [9] of 48.9 ng/mL and a concentration at 2 h [9] of 83.3 ng/mL. It also gave a concentration at 4 h [9] of 64.4 ng/mL, a concentration at 6 h [9] of 34.5 ng/mL and a concentration at 8 h [9] of 23 ng/mL. The concentration at 12 h [9] was 11.9 ng/mL, the concentration at 24 h [10] was 3.75 ng/mL and the concentration at 24 h [9] was 3.75 ng/mL. The concentration at 48 h [10] was 1.46 ng/mL, the concentration at 48 h [9] was 1.46 ng/mL and the concentration at 72 h [10] was 0.872 ng/mL. The concentration at 72 h [9] was 0.872 ng/mL, the concentration at 96 h [10] was 0.538 ng/mL and the concentration at 96 h [9] was 0.538 ng/mL. The AUC(0-t) (400 mg, single oral dose of 400 mg, fasted, geometric mean of subjects, read-out: AUC0-12, Geo Mean) was 263 ng·h/mL, the AUC0-inf (400 mg, single oral dose of 400 mg, fasted, geometric mean of subjects) was 304 ng·h/mL and the AUC(0-t) (400 mg, single oral dose of 400 mg, fasted, geometric mean of subjects, read-out: AUC0-last, Geo Mean) was 278 ng·h/mL. The Cmax (400 mg, single oral dose of 400 mg, fasted, geometric mean of subjects, read-out: Cmax, Geo Mean) was 86.2 ng/mL, the half-life (400 mg, single oral dose of 400 mg, fasted, geometric mean of subjects, read-out: T1/2, Geo Mean (converted)) was 33.3 h and the half-life (400 mg, single oral dose of 400 mg, fasted, individual subjects, read-out: T1/2 (converted)) was 33.3 h. It also gave a Tmax (400 mg, single oral dose of 400 mg, fasted, median of subjects (footnote b), read-out: Tmax, Median) of 2 h, a concentration at 0 h [11] of 20.6 ng/mL and a concentration at 0.5 h [11] of 97.2 ng/mL. It also gave a concentration at 1 h [11] of 137 ng/mL, a concentration at 1.5 h [11] of 107 ng/mL and a concentration at 2 h [11] of 122 ng/mL. It also gave a concentration at 4 h [11] of 138 ng/mL, a concentration at 6 h [11] of 107 ng/mL and a concentration at 8 h [11] of 56.2 ng/mL. The concentration at 12 h [11] was 14.7 ng/mL, the AUC(0-t) (800 mg, multiple oral doses of 800 mg BID, fasted, Geo Mean of subjects, read-out: AUC0-12) was 347 ng·h/mL and the AUC(0-t) (800 mg, multiple oral doses of 800 mg BID, fasted, Geo Mean of subjects, read-out: AUC0-last) was 477 ng·h/mL. The Cmax (800 mg, multiple oral doses of 800 mg BID, fasted, Geo Mean of subjects, read-out: Cmax) was 99.5 ng/mL and the Tmax (800 mg, multiple oral doses of 800 mg BID, fasted, Median of subjects, read-out: Tmax) was 2 h.
